The results in this text go back to ChEMBL document CHEMBL5726136, “Heterocyclic compounds and methods for their use” (2017).

In the test the target is T1, Type-2 angiotensin II receptor (Homo sapiens, UniProt P50052).
T1 sequence (P50052 whole entry): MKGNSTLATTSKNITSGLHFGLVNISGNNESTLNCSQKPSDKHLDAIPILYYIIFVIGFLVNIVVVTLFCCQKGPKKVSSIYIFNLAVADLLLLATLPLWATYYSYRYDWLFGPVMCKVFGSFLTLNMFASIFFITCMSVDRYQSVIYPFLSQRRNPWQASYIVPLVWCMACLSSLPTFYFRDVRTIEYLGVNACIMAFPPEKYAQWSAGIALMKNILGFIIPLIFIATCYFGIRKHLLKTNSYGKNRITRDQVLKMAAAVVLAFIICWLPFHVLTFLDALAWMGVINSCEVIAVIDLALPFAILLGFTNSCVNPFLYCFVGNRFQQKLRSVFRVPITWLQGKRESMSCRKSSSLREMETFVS
Kind of test: Receptor Binding Assay: 120 μL membrane (5 mg protein/well) was incubated with 15 μL of [125I]-CGP42112A and 15 μL of compound at RT for 1.5 hrs.The binding reaction was stopped by rapid filtration through Unifilter GF/C plates (presoaked in 0.3% (v:v) BSA).Plate was washed three times with ice cold wash buffer.The filtration plates were dried at 37° C. overnight.50 μL of scintillation cocktail was added to each well.Radioactivity was determined using MicroBetaTriluxmicroplate scintillation counter.
`CC(C)C#CCN(C)[C@H]1CCN(C(=O)C(c2ccccc2)c2ccccc2)[C@H](C(=O)O)C1`: the IC50 (in general, the concentration that inhibits the measured activity by half) was 0.354 µM.
Under `O=C(O)[C@@H]1C[C@H](OCC#Cc2ccc(F)cc2)CCN1C(=O)C(c1ccccc1)c1ccccc1` stands 0.228 µM; under `O=C(O)[C@@H]1C[C@H](OCc2ccccc2)CCN1C(=O)C(c1ccccc1)c1ccccc1`, 0.0767 µM; under `CC(C)C#CCN(C)[C@@H]1CCN(C(=O)C(c2ccccc2)c2ccccc2)[C@H](C(=O)O)C1`, 0.153 µM.
